How the values were obtained:
Assay in all cases: relative viability (nuclei count vs DMSO), 5 days (fraction); higher = more cells survive
A-427 = system: A-427
Summary of the method: (§1)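 Values are medians from duplicate plates. Each reflects relative viability, defined as the nuclei count of treated wells over that of vehicle wells. Lung cancer cell lines in 1536-well plates were pin-tool dosed one day after seeding with one drug alone or with a fixed anchor-drug dose plus five library-drug doses (not always all listed) in √10 steps, then fixed, stained and imaged at 4× after 5 days.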

CAL-12T = system: CAL-12T
Summary of the method: as §1

H3255 = system: H3255
Summary of the method: as §1

LCLC-97TM1 = system: LCLC-97TM1
Summary of the method: as §1

LK-2 = system: LK-2
Summary of the method: as §1

NCI-H1355 = system: NCI-H1355
Summary of the method: as §1

NCI-H1395 = system: NCI-H1395
Summary of the method: as §1

NCI-H1651 = system: NCI-H1651
Summary of the method: as §1

NCI-H1666 = system: NCI-H1666
Summary of the method: as §1

NCI-H1792 = system: NCI-H1792
Summary of the method: as §1

NCI-H1915 = system: NCI-H1915
Summary of the method: as §1

NCI-H2085 = system: NCI-H2085
Summary of the method: as §1

NCI-H2087 = system: NCI-H2087
Summary of the method: as §1

NCI-H2228 = system: NCI-H2228
Summary of the method: as §1

NCI-H322M = system: NCI-H322M
Summary of the method: as §1

NCI-H358 = system: NCI-H358
Summary of the method: as §1

NCI-H661 = system: NCI-H661
Summary of the method: as §1

NCI-H838 = system: NCI-H838
Summary of the method: as §1

PC-14 = system: PC-14
Summary of the method: as §1

PC-3 [JPC-3] = system: PC-3 [JPC-3]
Summary of the method: as §1

SK-MES-1 = system: SK-MES-1
Summary of the method: as §1

UMC-11 = system: UMC-11
Summary of the method: as §1

SMILES: O=C(O)CCCCC(CCSCc1ccccc1)SCc1ccccc1 (centres undefined) [CPI-613] + CC(=O)Nc1cccc(-n2c(=O)n(C3CC3)c(=O)c3c(Nc4ccc(I)cc4F)n(C)c(=O)c(C)c32)c1 [Trametinib] (partner 0.02 µM)
- relative viability (A-427; first compound 5 µM): 0.716
- relative viability (A-427; first compound 15.81 µM): 0.766
- relative viability (A-427; first compound 50 µM): 0.682
- relative viability (A-427; first compound 158.11 µM): 0.476
- relative viability (A-427; first compound 500 µM): 0.391
- relative viability (CAL-12T; first compound 5 µM): 0.286
- relative viability (CAL-12T; first compound 15.81 µM): 0.309
- relative viability (CAL-12T; first compound 50 µM): 0.325
- relative viability (CAL-12T; first compound 158.11 µM): 0.0954
- relative viability (CAL-12T; first compound 500 µM): 0.038
- relative viability (H3255; first compound 5 µM): 0.61
- relative viability (H3255; first compound 15.81 µM): 0.6
- relative viability (H3255; first compound 50 µM): 0.654
- relative viability (H3255; first compound 158.11 µM): 0.62
- relative viability (H3255; first compound 500 µM): 0.598
- relative viability (LCLC-97TM1; first compound 5 µM): 0.202
- relative viability (LCLC-97TM1; first compound 15.81 µM): 0.162
- relative viability (LCLC-97TM1; first compound 50 µM): 0.153
- relative viability (LCLC-97TM1; first compound 158.11 µM): 0.0713
- relative viability (LCLC-97TM1; first compound 500 µM): 0.0622
- relative viability (LK-2; first compound 5 µM): 0.702
- relative viability (LK-2; first compound 15.81 µM): 0.786
- relative viability (LK-2; first compound 50 µM): 0.93
- relative viability (LK-2; first compound 158.11 µM): 0.856
- relative viability (LK-2; first compound 500 µM): 0.792
- relative viability (NCI-H1355; first compound 5 µM): 0.44
- relative viability (NCI-H1355; first compound 15.81 µM): 0.409
- relative viability (NCI-H1355; first compound 50 µM): 0.42
- relative viability (NCI-H1355; first compound 158.11 µM): 0.27
- relative viability (NCI-H1355; first compound 500 µM): 0.112
- relative viability (NCI-H1395; first compound 5 µM): 0.901
- relative viability (NCI-H1395; first compound 15.81 µM): 1.05
- relative viability (NCI-H1395; first compound 50 µM): 0.928
- relative viability (NCI-H1395; first compound 158.11 µM): 1.04
- relative viability (NCI-H1395; first compound 500 µM): 0.917
- relative viability (NCI-H1651; first compound 5 µM): 0.771
- relative viability (NCI-H1651; first compound 15.81 µM): 0.771
- relative viability (NCI-H1651; first compound 50 µM): 0.848
- relative viability (NCI-H1651; first compound 158.11 µM): 0.783
- relative viability (NCI-H1651; first compound 500 µM): 0.765
- relative viability (NCI-H1666; first compound 5 µM): 0.888
- relative viability (NCI-H1666; first compound 15.81 µM): 0.821
- relative viability (NCI-H1666; first compound 50 µM): 0.796
- relative viability (NCI-H1666; first compound 158.11 µM): 0.488
- relative viability (NCI-H1666; first compound 500 µM): 0.394
- relative viability (NCI-H1792; first compound 5 µM): 0.381
- relative viability (NCI-H1792; first compound 15.81 µM): 0.372
- relative viability (NCI-H1792; first compound 50 µM): 0.355
- relative viability (NCI-H1792; first compound 158.11 µM): 0.291
- relative viability (NCI-H1792; first compound 500 µM): 0.0761
- relative viability (NCI-H1915; first compound 5 µM): 0.292
- relative viability (NCI-H1915; first compound 15.81 µM): 0.284
- relative viability (NCI-H1915; first compound 50 µM): 0.299
- relative viability (NCI-H1915; first compound 158.11 µM): 0.216
- relative viability (NCI-H1915; first compound 500 µM): 0.148
- relative viability (NCI-H2085; first compound 5 µM): 0.664
- relative viability (NCI-H2085; first compound 15.81 µM): 0.555
- relative viability (NCI-H2085; first compound 50 µM): 0.6
- relative viability (NCI-H2085; first compound 158.11 µM): 0.216
- relative viability (NCI-H2085; first compound 500 µM): 0.12
- relative viability (NCI-H2087; first compound 5 µM): 0.207
- relative viability (NCI-H2087; first compound 15.81 µM): 0.16
- relative viability (NCI-H2087; first compound 50 µM): 0.159
- relative viability (NCI-H2087; first compound 158.11 µM): 0.0653
- relative viability (NCI-H2087; first compound 500 µM): 0.003
- relative viability (NCI-H2228; first compound 5 µM): 0.549
- relative viability (NCI-H2228; first compound 15.81 µM): 0.393
- relative viability (NCI-H2228; first compound 50 µM): 0.343
- relative viability (NCI-H2228; first compound 158.11 µM): 0.452
- relative viability (NCI-H2228; first compound 500 µM): 0.052
- relative viability (NCI-H322M; first compound 5 µM): 0.427
- relative viability (NCI-H322M; first compound 15.81 µM): 0.485
- relative viability (NCI-H322M; first compound 50 µM): 0.454
- relative viability (NCI-H322M; first compound 158.11 µM): 0.516
- relative viability (NCI-H322M; first compound 500 µM): 0.514
- relative viability (NCI-H358; first compound 5 µM): 0.132
- relative viability (NCI-H358; first compound 15.81 µM): 0.133
- relative viability (NCI-H358; first compound 50 µM): 0.132
- relative viability (NCI-H358; first compound 158.11 µM): 0.0921
- relative viability (NCI-H358; first compound 500 µM): 0.0459
- relative viability (NCI-H661; first compound 5 µM): 0.528
- relative viability (NCI-H661; first compound 15.81 µM): 0.532
- relative viability (NCI-H661; first compound 50 µM): 0.541
- relative viability (NCI-H661; first compound 158.11 µM): 0.263
- relative viability (NCI-H661; first compound 500 µM): 0.133
- relative viability (NCI-H838; first compound 5 µM): 0.514
- relative viability (NCI-H838; first compound 15.81 µM): 0.461
- relative viability (NCI-H838; first compound 50 µM): 0.468
- relative viability (NCI-H838; first compound 158.11 µM): 0.232
- relative viability (NCI-H838; first compound 500 µM): 0.065
- relative viability (PC-14; first compound 5 µM): 0.651
- relative viability (PC-14; first compound 15.81 µM): 0.549
- relative viability (PC-14; first compound 50 µM): 0.72
- relative viability (PC-14; first compound 158.11 µM): 0.108
- relative viability (PC-14; first compound 500 µM): 0.0098
- relative viability (PC-3 [JPC-3]; first compound 5 µM): 0.659
- relative viability (PC-3 [JPC-3]; first compound 50 µM): 0.712
- relative viability (PC-3 [JPC-3]; first compound 158.11 µM): 0.321
- relative viability (PC-3 [JPC-3]; first compound 500 µM): 0.433
- relative viability (SK-MES-1; first compound 5 µM): 0.534
- relative viability (SK-MES-1; first compound 15.81 µM): 0.49
- relative viability (SK-MES-1; first compound 50 µM): 0.523
- relative viability (SK-MES-1; first compound 158.11 µM): 0.201
- relative viability (SK-MES-1; first compound 500 µM): 0.132
- relative viability (UMC-11; first compound 5 µM): 0.632
- relative viability (UMC-11; first compound 15.81 µM): 0.703
- relative viability (UMC-11; first compound 50 µM): 0.437
- relative viability (UMC-11; first compound 158.11 µM): 0.495
- relative viability (UMC-11; first compound 500 µM): 0.0937

— the supplement of paper PMC10307832
